Laboratory results published in patent publication US20140357512A1, “HISTONE DEACETYLASE (HDAC) BIOMARKERS IN MULTIPLE MYELOMA” (priority 2013, published 2014).

Tested on: human myeloma cell line MM.1S
Assay: SILAC acetylated-lysine peptide profiling, HDAC inhibitor vs DMSO (light/heavy ratio)
Assay type: cell-based
Source text: An embodiment of the invention comprises utilizing the SILAC method in order to quantitate changes in protein expression between two or more populations of cells. The SILAC method is a technique based on mass spectrometry that detects differences in protein abundance among samples using non-radioactive isotopic labeling. The SILAC method is known in the art, and described in detail in Ong et al., “Stable Isotope Labeling by Amino Acids in Cell Culture, SILAC, as a Simple and Accurate Approach to Expression Proteomics”, Molecular & Cellular Proteomics, vol. 1, pp. 376-386 (2002), which is incorporated herein by reference in its entirety.
Briefly, the SILAC method involves growing two populations of cells in cell culture. The first population of cells is grown in growth media containing normal amino acids (“normal media”). The second population of cells is grown in media lacking a standard essential amino acid (such as lysine), but is then supplemented with a non-radioactive, isotopically labeled form of that essential amino acid (such as lysine labeled with ^13C atoms, rather than normal ^12C atoms), which is called “heavy media”. When the two populations of cells are each growing in the medium, they incorporate the amino acids into all of their proteins. The growth of cells maintained in the heavy media is no different from that in normal media. All peptides containing the heavy amino acids are heavier than their normal counterparts. The cells from each of the two populations of cells are lysed. The lysates from each of the two cell populations are then combined. The combined cell lysates are then analyzed by mass spectrometry. Pairs of chemically identical peptides of different stable isotope composition can be differentiated in a mass spectrometer due to their difference in mass. The ratio of peak intensities in the mass spectrum for such peptide pairs reflects the abundance ratio for the two proteins.
This example describes SILAC studies that were performed to compare the effects of three different HDAC inhibitors (Compound A, Compound B, and tubastatin A) to a control on a human multiple myeloma cell line. The HDAC inhibitors were also compared amongst themselves to determine differences in their effects.
A human myeloma cell line MM.1S was grown using either ^12C (light) or ^13C (heavy) lysine containing culture medium. The “heavy” cells were treated with DMSO as the control, and the “light” cells were treated with a single HDAC inhibitor at 37° C. for 6 hours. The heavy and light cells were lysed, and the lysates were mixed in 1:1 ratio and digested with the protease trypsin. The acetylated lysine containing peptides (due to the action of the HDAC inhibitor) in the digested peptide pool were captured by a non-specific anti-acetylated lysine antibody cocktail (the antibodies identify both light and heavy acetylated peptides), and subjected to mass spectrometry analysis in order to identify thousands of individual peptides.
Thousands of peptides were identified in pairs (^12C and ^13C) due to their known mass differences. The amino acid sequence and quantitative ratio (Light/Heavy) of a given peptide in two differentially treated cell lysates were then determined and annotated with their possible protein (gene) sources.
As stated above, three HDAC inhibitors (Compound A, Compound B, and Tubastatin A) were used. Thus, the SILAC method was performed three times, with a different HDAC inhibitor compared to a control each time. Accordingly, there are three pairs of quantitative data in the table below, i.e., Compound A:DMSO, Compound B:DMSO, and Tubastatin A:DMSO. A cut-off of 1.30 fold of change (increase or decrease) was then used to determine “changed” or “+” in the table, and any peptides with a fold of change less than 1.3 fold were determined to be “unchanged” or “0” in the table. Those peptides that were not identified were marked as “NA” in the table. […]

O=C(CCCCCCNC(=O)c1cnc(N(c2ccccc2)c2ccccc2)nc1)NO [Compound A, 2-(diphenylamino)-N-(7-(hydroxyamino)-7-oxoheptyl)pyrimidine-5-carboxamide]
L/H ratio of acetylated peptide (ac)[…](ac)AAK (SEQ ID NO: 6) (VDAC3 [12], log 2 scale, drug vs DMSO): 0.00 | L/H ratio of acetylated peptide YK(ac)[…] (SEQ ID NO: 117) (VDAC3 [63], log 2 scale, drug vs DMSO): 0.00 | light to heavy ratio (L/H ratio) of acetylated peptide, log 2 scale (VGIVGK(ac)YGTR (SEQ ID NO: 250), 60S ribosomal protein L37a [13], RPL37A): −0.44 | L/H ratio of acetylated peptide TNEK(ac)VELQELNDR (SEQ ID NO: 122) (VIM [104], log 2 scale, drug vs DMSO): 0.00 | L/H ratio of acetylated peptide FANYIDK(ac)VR (SEQ ID NO: 118) (VIM [120], log 2 scale, drug vs DMSO): 0.00 | L/H ratio of acetylated peptide […](ac)GQGK (SEQ ID NO: 119) (VIM [139], log 2 scale, drug vs DMSO): 0.00 | L/H ratio of acetylated peptide SK(ac)[…] (SEQ ID NO: 121) (VIM [294], log 2 scale, drug vs DMSO): 0.00 | L/H ratio of acetylated peptide LQDEIQNMK(ac)EEMAR (SEQ ID NO: 120) (VIM [373], log 2 scale, drug vs DMSO): 0.00 | light to heavy ratio (L/H ratio) of acetylated peptide […](ac)QLFR (SEQ ID NO: 321) (Vesicle-trafficking protein SEC22b [38], SEC22B, drug:DMSO): 1.00 log 2 | light to heavy ratio (L/H ratio), log 2 scale, acetylated peptide EK(ac)LQEEMLQR (SEQ ID NO: 762) (Vimentin [188], gene VIM, drug:DMSO): 0.92 | light to heavy ratio (L/H ratio) of acetylated peptide TLLIK(ac)TVETR (SEQ ID NO: 269) (Vimentin [445], VIM, drug:DMSO): 0.45 log 2 | light to heavy ratio (L/H ratio) of acetylated peptide IAAYK(ac)SILQER (SEQ ID NO: 531) (X-ray repair cross-complementing protein 5 [265], gene XRCC5, inhibitor:DMSO): −0.41 log 2 | light to heavy ratio (L/H ratio) of acetylated peptide EEAIK(ac)FSEEQR (SEQ ID NO: 509) (X-ray repair cross-complementing protein 5 [648], gene XRCC5, inhibitor:DMSO): −0.60 log 2 | light to heavy ratio (L/H ratio) of acetylated peptide FNNFLK(ac)ALQEK (SEQ ID NO: 545) (X-ray repair cross-complementing protein 5 [660], gene XRCC5, inhibitor:DMSO): 0.39 log 2 | light to heavy ratio (L/H ratio) of acetylated peptide […](ac)HFQD (SEQ ID NO: 355) (X-ray repair cross-complementing protein 6 [605], XRCC6, drug:DMSO): 0.00 log 2 | L/H ratio of acetylated peptide ALQEK(ac)VEIK (SEQ ID NO: 123) (XRCC5 [665], log 2 scale, drug vs DMSO): 0.00 | light to heavy ratio (L/H ratio) of acetylated peptide, log 2 scale (YNCDK(ac)MICR (SEQ ID NO: 254), Ubiquitin-605 ribosomal protein L40 [93], UBA52): 0.38 | light to heavy ratio (L/H ratio) of acetylated peptide YFLDK(ac)TLTSR (SEQ ID NO: 293) ([3-methyl-2-oxobutanoate dehydrogenase [lipoamide]] kinase mitochondrial [192], BCKDK, drug:DMSO): 0.68 log 2 | L/H ratio of acetylated peptide ([…](ac)MVAAK (SEQ ID NO: 491), Cyclic AMP-dependent transcription factor ATF-4 [267], ATF4): −1.00 log 2 | L/H ratio of acetylated peptide ([…](ac)YPLR (SEQ ID NO: 493), Isoform 1 of NADH-cytochrome b5 reductase 3 [42], CYB5R3): −1.00 log 2 | light to heavy ratio (L/H ratio) of acetylated peptide SAYFAEK(ac)LYK (SEQ ID NO: 292) (annexin A4 [255], ANXA4, drug:DMSO): 0.67 log 2 | light to heavy ratio (L/H ratio) of acetylated peptide TLFVK(ac)[…] (SEQ ID NO: 511) (cDNA FLJ45706 fis clone FEBRA2028457 highly similar to Nucleolin [470], gene NCL, inhibitor:DMSO): −0.59 log 2 | light to heavy ratio (L/H ratio) of acetylated peptide ILMSK(ac)PVLSGGTGR (SEQ ID NO: 291) (cDNA FLJ55380 highly similar to Protein kinase C-binding protein 1 [440], ZMYND8, drug:DMSO): 0.67 log 2 | light to heavy ratio (L/H ratio) of acetylated peptide YDGK(ac)WEVEEMK (SEQ ID NO: 274) (cDNA FLJ55574 highly similar to Calnexin [138], CANX, drug:DMSO): 0.48 log 2 | light to heavy ratio (L/H ratio) of acetylated peptide LNK(ac)PFLFDTK (SEQ ID NO: 327) (cDNA FLJ55574 highly similar to Calnexin [172], CANX, drug:DMSO): 0.00 log 2 | light to heavy ratio (L/H ratio) of acetylated peptide LIGK(ac)QGR (SEQ ID NO: 629) (cDNA FLJ56047 highly similar to A kinase anchor protein 1 mitochondrial [667], gene AKAP1, inhibitor:DMSO): 0.49 log 2 | light to heavy ratio (L/H ratio) of acetylated peptide LLASK(ac)SLLNR (SEQ ID NO: 322) (cDNA FLJ56303 highly similar to Translocon-associated protein subunit beta [46], SSR2, drug:DMSO): 1.00 log 2 | light to heavy ratio (L/H ratio) of acetylated peptide LPSSTK(ac)SGWPR (SEQ ID NO: 500) (cDNA FLJ75110 highly similar to Homo sapiens PHD finger protein 15 (PHF15) mRNA [38], gene PHF15, inhibitor:DMSO): −0.78 log 2 | light to heavy ratio (L/H ratio) of acetylated peptide IINEVSK(ac)[…] (SEQ ID NO: 341) (cDNA FLJ77177 highly similar to Homo sapiens arginine-rich mutated in early stage tumors (ARMET) mRNA [97], MANF, drug:DMSO): 0.00 log 2 | light to heavy ratio (L/H ratio) of acetylated peptide TNVPVK(ac)LFAR (SEQ ID NO: 348) (cDNA FLJ77422 highly similar to Homo sapiens RNA binding protein autoantigenic (hnRNP-associated with lethal yellow homolog (mouse)) transcript variant 1 mRNA (Fragment) [165], RALY, drug:DMSO): 0.00 log 2 | light to heavy ratio (L/H ratio) of acetylated peptide EIAQEFK(ac)TDLR (SEQ ID NO: 337) (histone cluster 2 H3 pseudogene 2 [80], HIST2H3PS2, drug:DMSO): 0.00 log 2 | light to heavy ratio (L/H ratio) of acetylated peptide GSK(ac)[…] (SEQ ID NO: 265) (membrane-associated progesterone receptor component 2 [159], PGRMC2, drug:DMSO): 0.43 log 2 | light to heavy ratio (L/H ratio) of acetylated peptide SK(ac)SDPIMLLK (SEQ ID NO: 255) (pyruvate dehydrogenase E1 component subunit alpha somatic form mitochondrial isoform 2 precursor [351], PDHA1, drug:DMSO): 0.39 log 2 | light to heavy ratio (L/H ratio) of acetylated peptide VTNLLMLK(ac)GK (SEQ ID NO: 350) (regulator of differentiation 1 isoform 2 [64], ROD1, drug:DMSO): 0.00 log 2 | light to heavy ratio (L/H ratio) of acetylated peptide LTSLNVK(ac)YNNDK (SEQ ID NO: 590) (regulator of differentiation 1 isoform 2 [236], gene ROD1, inhibitor:DMSO): 0.44 log 2 | light to heavy ratio (L/H ratio) of acetylated peptide GWLK(ac)[…] (SEQ ID NO: 278) (triosephosphate isomerase isoform 2 [231], TPI1, TPI1P1, drug:DMSO): 0.54 log 2
